Results on 28 molecules are retold here after patent publication US10383880B2 (Reset Therapeutics, Inc., priority 2012, dated 2019).

This assay deals with Per2-dLuc U2OS reporter cells. Briefly: Per2 assay for evaluating the potency of test compounds (high-throughput circadian assay). The settings on record: stable U2OS reporter cells harboring Per2-dLuc, luminescence monitored over 4-5 days at 35° C. Type of assay: cell-based. How it is done:
Compounds were screened by using a high-throughput circadian assay system as previously described in Zhang, E. E. et al. Cell, 2009, 139, 199-210. In brief, stable U2OS reporter cells harboring Per2-dLuc were plated at a density of 8,000 cells/well in Corning 96-well, solid white, flat bottom, TC-treated microplates (Corning®), and incubated for 24 hours at 37° C. in the presence of 5% CO2. The cells were then synchronized by serum shock by media exchange to a minimal explant media (10 mM HEPES (pH 7.0), 2% B27, 1×PSG (Invitrogen®), and 1.0 mM beetle luciferin (Promega®)) followed by the addition of the compounds of formula I dissolved in dimethylsulfoxide (0.5% final dimethylsulfoxide concentration). Gene expression was monitored by measuring luminescence (TecanR M200) over 4-5 days at 35° C. The period, amplitude, and phase of the associated circadian rhythms were determined using Multicycle™ software (Actimetrics, Inc). EC50 values of the compounds of formula I were calculated using Graphpad™ (Prism®).

Turning to `CS(=O)(=O)N(CC(O)Cn1c2ccc(F)cc2c2cc(F)ccc21)c1ccc(C2CC2)cc1` (stereo not shown) [Compound 207, N-(4-Cyclopropylphenyl)-N-(3-(3,6-difluoro-9H-carbazol-9-yl)-2-hydroxypropyl)methanesulfonamide], a half-maximal response (Homo sapiens, U2OS) (EC50) required 2950 nM.
On to `CS(=O)(=O)N(CC(O)Cn1c2ccccc2c2ccccc21)C1CCCCC1` (stereo not shown) [Compound 71, N-(3-(9H-Carbazol-9-yl)-2-hydroxypropyl)-N-cyclohexylmethanesulfonamide], for which a half-maximal response (Homo sapiens, U2OS) (EC50) required 3300 nM. This EC50 and that of the molecule before are within 1.5-fold of each other.
The same measure, in the same setting: the result for `COC1CN(CC(C)(O)Cn2c3ccc(F)cc3c3cc(F)ccc32)S(=O)(=O)C1` (stereo not shown) [Compound 182, 2-(3-(3,6-Difluoro-9H-carbazol-9-yl)-2-hydroxy-2-methylpropyl)-4-methoxyisothiazolidine-1,1-dioxide] reads 241 nM.
`Cc1ccc(N(CC(O)Cn2c3ccccc3c3ccccc32)S(C)(=O)=O)cc1` (stereo not shown) [Compound 25, N-(3-(9H-Carbazol-9-yl)-2-hydroxypropyl)-N-p-tolylmethanesulfonamide] registered an EC50 (Homo sapiens, U2OS) of 170 nM.
Same read-out and setting: the result for `O=S(=O)(Cc1ccccc1)N(Cc1ccco1)CC(O)Cn1c2ccccc2c2ccccc21` (stereo not shown) [Compound 14, N-(3-(9H-Carbazol-9-yl)-2-hydroxypropyl)-N-(furan-2-ylmethyl)-1-phenylmethanesulfonamide] reads 652 nM.
The same measure, in the same setting: as for `CC(O)(CN1CCCNS1(=O)=O)Cn1c2ccc(F)cc2c2cc(F)ccc21` (stereo not shown) [Compound 172, 2-(3-(3,6-Difluoro-9H-carbazol-9-yl)-2-hydroxy-2-methylpropyl)-1,2,6-thiadiazinane-1,1-dioxide], the figure is 375 nM.
For the molecule `CC(C)N(CC(O)Cn1c2ccc(F)cc2c2cc(F)ccc21)S(C)(=O)=O` (stereo not shown) [Compound 117, N-(3-(3,6-Difluoro-9H-carbazol-9-yl)-2-hydroxypropyl)-N-isopropylmethanesulfonamide], the EC50 (Homo sapiens, U2OS) turned out to be 127 nM.
The same measure, in the same setting: the result for `CS(=O)(=O)N(CC(O)Cn1c2ccccc2c2ccccc21)C1CC(F)C1` (stereo not shown) [Compound 147, N-(3-(9H-Carbazol-9-yl)-2-hydroxypropyl)-N-(3-fluorocyclobutyl)methanesulfonamide] reads 980 nM; that for `O=S(=O)(N(Cc1ccco1)CC(O)Cn1c2ccccc2c2ccccc21)C(F)(F)F` (stereo not shown) [Compound 83, N-(3-(9H-Carbazol-9-yl)-2-hydroxypropyl)-1,1,1-trifluoro-N-(furan-2-ylmethyl)methanesulfonamide], 413 nM; that for `O=S1(=O)CCCN1CC(O)Cn1c2ccccc2c2ccccc21` (stereo not shown) [Compound 20, N-(3-(9H-Carbazol-9-yl)-2-hydroxypropyl)isothiazolidine 1,1-dioxide], 29 nM.
For the setting “Homo sapiens, U2OS”, `CCN(CC(O)Cn1c2ccc(F)cc2c2ccc(F)cc21)S(C)(=O)=O` (stereo not shown) [Compound 164, N-(3-(2,6-Difluoro-9H-carbazol-9-yl)-2-hydroxypropyl)-N-ethylmethanesulfonamide] registered an EC50 of 200 nM. This EC50 lies about 6.9-fold higher than the previous one.
On the same count and under the same terms, as for `CC1CCN(CC(O)Cn2c3ccc(F)cc3c3cc(F)ccc32)S1(=O)=O` (stereo not shown) [Compound 177], the figure is 202 nM; as for `CS(=O)(=O)N(Cc1ccco1)CC(O)Cn1c2ccccc2c2cc(F)ccc21` (stereo not shown) [Compound 238, N-(3-(3-Fluoro-9H-carbazol-9-yl)-2-hydroxy-propyl)-N-(furan-2-yl-methyl)methane-sulfonanide], 535 nM; as for `CN1CCCN(CC(C)(O)Cn2c3ccc(F)cc3c3cc(F)ccc32)S1(=O)=O` (stereo not shown) [Compound 170, 2-(3-(3,6-Difluoro-9H-carbazol-9-yl)-2-hydroxy-2-methylpropyl)-6-methyl-1,2,6-thiadiazinane-1,1-dioxide], 1260 nM.
`CC(O)(CN1CCCN(C2CCC2)S1(=O)=O)Cn1c2ccc(F)cc2c2cc(F)ccc21` (stereo not shown) [Compound 229, 2-(3-(3,6-Difluoro-9H-carbazol-9-yl)-2-hydroxy-2-methylpropyl)-6-cyclobutyl-1,2,6-thiadiazinane-1,1-dioxide] gave an EC50 (Homo sapiens, U2OS) of 4980 nM.
On the same count and under the same terms, as for `CS(=O)(=O)N(CC(O)Cn1c2ccccc2c2ccccc21)C1CC2CCC1O2` (single isomer, unassigned) [Compound 140A, N-(3-(9H-Carbazol-9-yl)-2-hydroxypropyl)-N-(7-oxabicyclo[2.2.1]heptan-2-yl)methanesulfonamide], the figure is 503 nM.
Turning to `CS(=O)(=O)N(CC(O)Cn1c2ccccc2c2ccccc21)C1CC2CCC1O2` (single isomer, unassigned) [Compound 140B, N-(3-(9H-Carbazol-9-yl)-2-hydroxypropyl)-N-(7-oxabicyclo[2.2.1]heptan-2-yl)methanesulfonamide], a half-maximal response (EC50) required 823 nM.
`O=S1(=O)CCCCN1CC(O)Cn1c2cc(F)ccc2c2ccc(F)cc21` (stereo not shown) [Compound 91, N-(3-(2,7-Difluoro-9H-carbazol-9-yl)-2-hydroxypropyl)-1,2-thiazinane 1,1-dioxide]: the 50% effective concentration (EC50) (Homo sapiens, U2OS) turned out to be 150 nM.
The same measure, in the same setting: the result for `CC(C)N1CCN(CC(C)(O)Cn2c3ccc(F)cc3c3cc(F)ccc32)S1(=O)=O` (stereo not shown) [Compound 225] reads 3090 nM.
Still for that read-out and setting: as for `CC(=O)N1CCC(N(CC(O)Cn2c3ccccc3c3ccccc32)S(C)(=O)=O)CC1` (stereo not shown) [Compound 59, N-(3-(9H-Carbazol-9-yl)-2-hydroxypropyl)-N-(1-acetylpiperidin-4-yl)methanesulfonamide], the figure is 9580 nM; as for `CC(C)CN(CC(O)Cn1c2ccccc2c2ccccc21)S(C)(=O)=O` (stereo not shown) [Compound 49, N-(3-(9H-Carbazol-9-yl)-2-hydroxypropyl)-N-isobutylmethanesulfonamide], 100 nM.
On the same count and under the same terms, as for `CS(=O)(=O)N(CC(O)Cn1c2ccc(F)cc2c2cc(F)ccc21)c1ccc(OC(F)F)cc1` (stereo not shown) [Compound 206, N-(3-(3,6-Difluoro-9H-carbazol-9-yl)-2-hydroxypropyl)-N-(4-(difluoromethoxy)phenyl)methanesulfonamide], the figure is 2850 nM; as for `CN(CC(O)Cn1c2ccccc2c2ccccc21)S(C)(=O)=O` (stereo not shown) [Compound 32, N-(3-(9H-Carbazol-9-yl)-2-hydroxypropyl)-N-methylmethanesulfonamide], 100 nM.
In turn, `CN1CCCN(CC(O)Cn2c3ccc(F)cc3c3cc(F)ccc32)S1(=O)=O` (stereo not shown) [Compound 169, 2-(3-(3,6-Difluoro-9H-carbazol-9-yl)-2-hydroxypropyl)-6-methyl-1,2,6-thiadiazinane-1,1-dioxide] displayed a concentration for a half-maximal effect (EC50) (Homo sapiens, U2OS) of 504 nM.
Same read-out and setting: as for `CC(O)(CN1CCN(C2CCCC2)S1(=O)=O)Cn1c2ccc(F)cc2c2cc(F)ccc21` (stereo not shown) [Compound 232], the figure is 2580 nM.
Same read-out and setting: as for `CC(C)N1CCCN(CC(O)Cn2c3ccc(F)cc3c3cc(F)ccc32)S1(=O)=O` (stereo not shown) [Compound 217, 2-(3-(3,6-Difluoro-9H-carbazol-9-yl)-2-hydroxypropyl)-6-isopropyl-1,2,6-thiadiazinane-1,1-dioxide], the figure is 1670 nM.
Same read-out and setting: the result for `O=S1(=O)N(CC(O)Cn2c3ccc(F)cc3c3cc(F)ccc32)CCCN1C1CCCCC1` (stereo not shown) [Compound 222, 2-(3-(3,6-Difluoro-9H-carbazol-9-yl)-2-hydroxypropyl)-6-cyclohexyl-1,2,6-thiadiazinane-1,1-dioxide] reads 7120 nM; that for `CC1(N(CC(O)Cn2c3ccccc3c3ccccc32)S(C)(=O)=O)CCC1` (stereo not shown) [Compound 138, N-(3-(9H-Carbazol-9-yl)-2-hydroxypropyl)-N-(1-methylcyclobutyl)methanesulfonamide], 41 nM.
